Read-outs that look alike come from different tables or passages of the source.
Assays:
HIV-13B = assay: Antiviral activity: inhibition of the cytopathic effect of HIV in MT4 cells (procedure of Pauwels et al.); assay type: cell-based; details: Human immunodeficiency virus 1, MT4
Excerpt: (§1) The anti-HIV activity of the compounds of the invention can be determined in MT4 cells according to the procedure of Pauwels et. al. (J. Virol. Methods 1988, 20, 309).

[1] = Cell viability (LC50) in MT4 cells in the antiviral test; assay type: cell-based; details: human, concentration at which 50% of the cells remain viable
Excerpt: as §1

HIV-1 protease = HIV-1 protease (Human immunodeficiency virus type 1 group M subtype B, UniProt P04585); assay: Fluorogenic assay for screening inhibitors of HIV protease; assay type: biochemical; details: read-out: Percent Inhibition
Description: Fluorogenic Assay for Screening Inhibitors of HIV Protease
The inhibitory potency of the compounds of the invention can be determined by the following method.
A compound of the invention is dissolved in DMSO and a small aliquot further diluted with DMSO to 100 times the final concentration desired for testing. The reaction is carried out in a 6 X 50 mm tube in a total volume of 300 microliters. The final concentrations of the components in the reaction buffer are: 125 mM sodium acetate, 1 M sodium chloride, 5 mM dithiothreitol, 0.5 mg/ml bovine serum albumin, 1.3 µM fluorogenic substrate, 2% (v/v) dimethylsulfoxide, pH 4.5. After addition of inhibitor, the reaction mixture is placed in the fluorometer cell holder and incubated at 30°C for several minutes. The reaction is initiated by the addition of a small aliquot of cold HIV protease. The fluorescence intensity (excitation 340 nm, emmision 490 nM) is recorded as a function of time. The reaction rate is determined for the first six to eight minutes. The observed rate is directly proportional to the moles of substrate cleaved per unit time. The percent inhibition is 100 X (1 - (rate in presence of inhibitor)/(rate in absence of inhibitor)).

[2] = Inhibitor Concentration 0.5 nanomolar

| Structure (SMILES) | IC50 (HIV-13B) [nM] | also measured |
| --- | --- | --- |
| CC(C)[C@H](NC(=O)OCc1ccccn1)C(=O)N[C@@H](Cc1ccccc1)[C@@H](O)C[C@H](Cc1ccccc1)NC(=O)OCc1cccnc1 [Example 39, (2S,3S,5S)-2-(N-(N-((2-Pyridinyl)methoxycarbonyl)valinyl)amino)-5-(N-((3-pyridinyl)methoxycarbonyl)amino)-1,6-diphenyl-3-hydroxyhexane] | 130 to 250 |  |
| COc1ccc(COC(=O)N[C@H](C(=O)N[C@@H](Cc2ccccc2)C[C@H](O)[C@H](Cc2ccccc2)NC(=O)OCc2cccnc2)C(C)C)cn1 [Example 310] | 13 to 25 |  |
| CC(C)[C@H](NC(=O)OCc1ccccn1)C(=O)N[C@@H](Cc1ccccc1)C[C@H](O)[C@H](Cc1ccccc1)NC(=O)OCc1cccnc1 [Example 40, (2S,3S,5S)-5-(N-(N-((2-Pyridinyl)methoxycarbonyl)valinyl)amino)-2-(N-((3-pyridinyl)methoxycarbonyl)amino)-1,6-diphenyl-3-hydroxyhexane] | 230 to 550 | CC50 [1]: 64000 nM; inhibition at 0.0005 µM (HIV-1 protease): 61% |
| CC(C)[C@H](NC(=O)N(C)Cc1ccccn1)C(=O)N[C@@H](Cc1ccccc1)[C@@H](O)C[C@H](Cc1ccccc1)NC(=O)OCc1cccnc1 [Example 37C, (2S,3S,5S)-2-(N-(N-((N-Methyl-N-((2-pyridinyl)-methyl)amino)carbonyl)valinyl)amino)-5-(N-((3-pyridinyl)methoxycarbonyl)amino)-1,6-diphenyl-3-hydroxyhexane] | 840 to 1440 | inhibition at 0.001 µM (HIV-1 protease): 61% |
| Cc1cccc(CN(C)C(=O)N[C@H](C(=O)N[C@@H](Cc2ccccc2)C[C@H](O)[C@H](Cc2ccccc2)NC(=O)OCc2cccnc2)C(C)C)n1 [Example 298] | 220 to 290 |  |
| Cc1cncc(CN(C)C(=O)N[C@H](C(=O)N[C@@H](Cc2ccccc2)[C@@H](O)C[C@H](Cc2ccccc2)NC(=O)OCc2cccnc2)C(C)C)c1 [Example 313, (2S,3S,5S)-2-(N-(N-((N-Methyl-N-((5-methyl-3-pyridinyl)methyl)amino)carbonyl)valinyl)amino)-5-(N-((3-pyridinyl)methoxycarbonyl)amino)-1,6-diphenyl-3-hydroxyhexane] | 460 to 500 |  |
| Cc1cnc(COC(=O)N[C@H](C(=O)N[C@@H](Cc2ccccc2)[C@@H](O)C[C@H](Cc2ccccc2)NC(=O)OCc2cccnc2)C(C)C)cn1 [Example 307] | 160 to 260 |  |
| Cc1cccc(COC(=O)N[C@H](C(=O)N[C@@H](Cc2ccccc2)C(=O)C(F)(F)[C@H](Cc2ccccc2)NC(=O)[C@@H](NC(=O)OCc2cccc(C)n2)C(C)C)C(C)C)n1 [Example 306] | 7 to 19 | inhibition at 0.0005 µM (HIV-1 protease; [2]): 88% |
| Cc1cnc(COC(=O)N[C@H](C(=O)N[C@@H](Cc2ccccc2)C[C@H](O)[C@H](Cc2ccccc2)NC(=O)OCc2cccnc2)C(C)C)cn1 [Example 308] | 77 to 124 |  |
| CC[C@H](C)[C@H](NC(=O)N(C)Cc1ccccn1)C(=O)N[C@@H](Cc1ccccc1)C[C@H](O)[C@H](Cc1ccccc1)NC(=O)OCc1cccnc1 [Example 171] | 380 to 550 | inhibition at 0.0005 µM (HIV-1 protease; [2]): 62% |
| CC(C)[C@H](NC(=O)OCc1ccccn1)C(=O)N[C@@H](Cc1ccccc1)[C@@H](O)C[C@H](Cc1ccccc1)NC(=O)OCc1cncnc1 [Example 319, (2S,3S,5S)-2-(N-(N-((2-Pyridinyl)methoxycarbonyl)valinyl)amino)-5-(N-((5-pyrimidinyl)methoxycarbonyl)amino)-1,6-diphenyl-3-hydroxyhexane] | 210 to 290 |  |
| Cc1cccc(COC(=O)N[C@H](C(=O)N[C@@H](Cc2ccccc2)C[C@H](O)[C@H](Cc2ccccc2)NC(=O)OCc2cccnc2)C(C)C)n1 [Example 290, (2S,3S,5S)-2-(N-[(pyridin-3-yl)methoxycarbonyl]amino)-5-(N-[(6-methylpyridin-2-yl)methoxycarbonyl-valyl]amino)-1,6-diphenyl-3-hydroxyhexane] | 26 to 75 |  |
| Cc1cncc(CN(C)C(=O)N[C@H](C(=O)N[C@@H](Cc2ccccc2)C[C@H](O)[C@H](Cc2ccccc2)NC(=O)OCc2cccnc2)C(C)C)c1 [Example 314] | 98 to 144 |  |
| O=C(N[C@@H](Cc1ccccc1)C[C@H](O)[C@H](Cc1ccccc1)NC(=O)OCc1ccno1)OCc1ccno1 [Example 334B, (2S,3S,5S)-2,5-Bis-(N-(isoxazol-5-ylmethoxycarbonyl)amino)-1,6-diphenyl-3-hydroxyhexane] | 740 to 1600 | CC50 [1]: 91000 nM; inhibition at 0.001 µM (HIV-1 protease): 56% |
| CC(C)[C@H](NC(=O)N(C)Cc1ccccn1)C(=O)N[C@@H](Cc1ccccc1)C[C@H](O)[C@H](Cc1ccccc1)NC(=O)OCc1cccnc1 [Example 38, (2S,3S,5S)-5-(N-(N-((N-Methyl-N-((2-pyridinyl)methyl)amino)carbonyl)valinyl)amino)-2-(N-((3-pyridinyl)methoxycarbonyl)amino)-1,6-diphenyl-3-hydroxyhexane] | 550 to 610 |  |
| COc1ccc(CN(C)C(=O)N[C@H](C(=O)N[C@@H](Cc2ccccc2)[C@@H](O)C[C@H](Cc2ccccc2)NC(=O)OCc2cccnc2)C(C)C)cn1 [Example 311, (2S,3S,5S)-2-(N-(N-((N-Methyl-N-((6-methoxy-3-pyridinyl)methyl)amino)carbonyl)valinyl)amino)-5-(N-((3-pyridinyl)methoxycarbonyl)amino)-1,6-diphenyl-3-hydroxyhexane] | 58 to 67 |  |
| CC(C)[C@H](NC(=O)OCc1ccccn1)C(=O)N[C@@H](Cc1ccccc1)C[C@H](O)[C@H](Cc1ccccc1)NC(=O)OCc1cncnc1 [Example 321, (2S,3S,5S)-5-(N-(N-((2-Pyridinyl)methoxycarbonyl)valinyl)amino)-2-(N-((5-pyrimidinyl)methoxycarbonyl)amino)-1,6-diphenyl-3-hydroxyhexane] | 140 to 190 | inhibition at 0.0005 µM (HIV-1 protease): 64% |
| O=C(N[C@@H](Cc1ccccc1)C[C@H](O)[C@H](Cc1ccccc1)NC(=O)OCc1cccnc1)OCc1cccnc1 [Example 174] | 140 to 230 | inhibition at 0.0005 µM (HIV-1 protease; [2]): 51% |
| CC(C)[C@H](NC(=O)OCc1ccc2ccccc2n1)C(=O)N[C@@H](Cc1ccccc1)[C@@H](O)C[C@H](Cc1ccccc1)NC(=O)OCc1cccnc1 [Example 326, (2S,3S,5S)-2-(N-(N-((2-Ouinolinyl)methoxycarbonyl)valinyl)amino)-5-(N-((3-pyridinyl)methoxycarbonyl)amino)-1,6-diphenyl-3-hydroxyhexane] | 53 to 86 | CC50 [1]: 27000 nM; inhibition at 0.0005 µM (HIV-1 protease): 66% |
| CC(C)[C@H](NC(=O)OCc1ccc2ccccc2n1)C(=O)N[C@@H](Cc1ccccc1)C[C@H](O)[C@H](Cc1ccccc1)NC(=O)OCc1cccnc1 [Example 327, (2S,3S,5S)-5-(N-(N-((2-Ouinolinyl)methoxycarbonyl)valinyl)amino)-2-(N-((3-pyridinyl)methoxycarbonyl)amino)-1,6-diphenyl-3-hydroxyhexane] | 34 to 64 | CC50 [1]: 84000 nM; inhibition at 0.0005 µM (HIV-1 protease): 69% |
| CC(C)[C@H](NC(=O)N(C)Cc1ccccn1)C(=O)N[C@@H](Cc1ccccc1)C[C@H](O)[C@H](Cc1ccccc1)NC(=O)OCc1cncnc1 [Example 320, (2S,3S,5S)-5-(N-(N-((N-Methyl-N-((2-pyridinyl)methyl)amino)carbonyl)valinyl)amino)-2-(N-((5-pyrimidinyl)methoxycarbonyl)amino)-1,6-diphenyl-3-hydroxyhexane] | 400 to 500 |  |
| Cc1cccc(CN(C)C(=O)N[C@H](C(=O)N[C@@H](Cc2ccccc2)[C@@H](O)C[C@H](Cc2ccccc2)NC(=O)OCc2cccnc2)C(C)C)n1 [Example 297, (2S,3S-5S)-2-(N-(N-((N-Methyl-N-((6-methyl-2-pyridinyl)methyl)amino)carbonyl)valinyl)amino)-5-(N-((3-pyridinyl)-methoxycarbonyl)amino)-1,6-diphenyl-3-hydroxyhexane] | 310 to 350 |  |
| Cc1cccc(COC(=O)N[C@H](C(=O)N[C@@H](Cc2ccccc2)[C@@H](O)C[C@H](Cc2ccccc2)NC(=O)OCc2ccoc2)C(C)C)n1 [Example 322B, (2S,3S,5S)-2-(N-(N-(2-(6-Methylpyridinyl)methoxycarbonyl)valinyl)amino)-5-(N-((3-furyl)methoxycarbonyl)amino)-1,6-diphenyl-3-hydroxyhexane] | 86 to 94 |  |
| COc1ccc(COC(=O)N[C@H](C(=O)N[C@@H](Cc2ccccc2)C[C@H](O)[C@H](Cc2ccccc2)NC(=O)[C@@H](NC(=O)OCc2ccc(OC)nc2)C(C)C)C(C)C)cn1 [Example 315] | 3 to 5 | inhibition at 0.0005 µM (HIV-1 protease): […] |
| COc1ccc(CN(C)C(=O)N[C@H](C(=O)N[C@@H](Cc2ccccc2)C[C@H](O)[C@H](Cc2ccccc2)NC(=O)OCc2cccnc2)C(C)C)cn1 [Example 312] | 58 to 77 |  |
| Cc1cccc(COC(=O)N[C@H](C(=O)N[C@@H](Cc2ccccc2)[C@@H](O)C(F)(F)[C@H](Cc2ccccc2)NC(=O)[C@@H](NC(=O)OCc2cccc(C)n2)C(C)C)C(C)C)n1 [Example 305] | 5 to 17 | inhibition at 0.0005 µM (HIV-1 protease; [2]): 91% |

— EP0997459A1, “Intermediates for preparing retroviral protease inhibiting compounds” (priority 1990, dated 1992)
